Measurements from US20250249025A1, “DRUG DELIVERY CARRIER UTILIZING PROPERTY OF D-ALLOSE BEING UPTAKEN BY CANCER CELL, DRUG DELIVERY METHOD, AND COMPOSITION FOR TREATING RENAL CELL CARCINOMA” (NATIONAL UNIVERSITY CORPORATION KAGAWA UNIVERSITY, priority 2019, published 2025).

Experiments:
Type in all cases: cell-based
[1] = system: human bladder carcinoma cell line RT112; assay: Rare sugar uptake experiment, sugar content in disrupted cell suspension of RT112; conditions: RT112, 48 hours; for D-glucose content in cell: named sugar added to RPMI-1640 at 10 mM, HPLC after ABEE labeling
Method: (§1) An uptake amount of a rare sugar, which had been added to a medium, into carcinoma cells was analyzed using the cell lines of three types of cancers. As the rare sugar, four kinds, that is, D-allose, D-allulose (D-psicose), L-allulose (L-psicose), and allitol were used, while D-glucose and fructose were used as a monosaccharide which was not a rare sugar.
(§2) Cells of each of the cell lines were cultured in RPMI-1640 media and during culturing, six sugars were each added to the resulting media and cultured. After culturing, an amount of each sugar taken up into the cells was analyzed. The medium to which no sugar was added during culturing was used as a control.
(§3) Used were human bladder carcinoma cell lines (RT112, 253), and J82), human prostatic carcinoma cell lines (LNCa, Du145, and PC-3), and human renal cell carcinoma cell lines (ACHN, Caki-I, and Caki-II).
(§4) After cells were cultured in RPMI-1640 (2000 mg D-glucose/L) media, the above monosaccharides and rare sugars were added to the resulting media, respectively. Described specifically, they were following seven combinations: RPMI-1640 alone (control), RPMI-1640+D-glucose, RPMI-1640+L-allulose, RPMI-1640+D-allulose, RPMI-1640+D-fructose, RPMI-1640+D-allose, and RPMI-1640+D-allitol. The final concentration of the sugar in the medium was adjusted to 10 mM and no sugar was added in the control.
(§5) Five-ml portions of a 3.0×10^4 cells/ml cell suspension prepared using RPMI-1640 were seeded in dishes having a diameter of 6 cm (1.5×10^5 cells/dish) and cultured for 24 hours in the RPMI-1640 medium containing 2000 mg/l of D-glucose as a nutrient source. Twenty-four hours later, the media were changed to the culture solutions containing the monosaccharides and rare sugars described above in 2), respectively, followed by culturing for 48 hours.
(§6) After culturing for 48 hours, the attached human carcinoma cells were mechanically separated and collected in a Spitz tube together with the culture solution and floating cells. After the supernatant formed by centrifugation (4° C., 1200 rpm, and 5 minutes) was removed to obtain cell pellets alone, 5 ml of a phosphate buffer physiological saline (PBS) was added for the purpose of washing to obtain a cell suspension of the cell pellets. A gain, the resulting cell suspension was centrifuged at 4° C. and 1200 rpm for 5 minutes and the supernatant was removed. To the cell pellets after washing was added 1 ml of pure water to suspend them therein. Ultrasonic disruption (intensity: 40%, 30 seconds) was then performed and the monosaccharide in the disrupted cell suspension was labeled with ABEE, followed by analysis by HPLC. From the area thus obtained, the sugar content in the cells was determined using a calibration curve. With respect to the ketose, two peaks were found after labeling with ABEE so that the sugar content in the cells was determined from the calibration curves of both peaks.

[2] = system: human prostate carcinoma cell line PC-3; assay: Rare sugar uptake experiment, sugar content in disrupted cell suspension of PC-3; conditions: PC-3, 48 hours; for D-glucose content in cell: named sugar added to RPMI-1640 at 10 mM, HPLC after ABEE labeling
Method: as §1, §2, §3, §4, §5, §6

[3] = system: human renal cell carcinoma cell line Caki-II; assay: Rare sugar uptake experiment, sugar content in disrupted cell suspension of Caki-II; conditions: Caki-II, 48 hours; for D-glucose content in cell: named sugar added to RPMI-1640 at 10 mM, HPLC after ABEE labeling
Method: as §1, §2, §3, §4, §5, §6

[4] = system: human prostate carcinoma cell line LNCa; assay: Rare sugar uptake experiment, sugar content in disrupted cell suspension of LNCa; conditions: LNCa, 48 hours; for D-glucose content in cell: named sugar added to RPMI-1640 at 10 mM, HPLC after ABEE labeling
Method: as §1, §2, §3, §4, §5, §6

[5] = system: human prostate carcinoma cell line Du145; assay: Rare sugar uptake experiment, sugar content in disrupted cell suspension of Du145; conditions: Du145, 48 hours; for D-glucose content in cell: named sugar added to RPMI-1640 at 10 mM, HPLC after ABEE labeling
Method: as §1, §2, §3, §4, §5, §6

[6] = system: human renal cell carcinoma cell line ACHN; assay: Rare sugar uptake experiment, sugar content in disrupted cell suspension of ACHN; conditions: ACHN, 48 hours; for D-glucose content in cell: named sugar added to RPMI-1640 at 10 mM, HPLC after ABEE labeling
Method: as §1, §2, §3, §4, §5, §6

[7] = system: human renal cell carcinoma cell line Caki-I; assay: Rare sugar uptake experiment, sugar content in disrupted cell suspension of Caki-I; conditions: Caki-I, 48 hours; for D-glucose content in cell: named sugar added to RPMI-1640 at 10 mM, HPLC after ABEE labeling
Method: as §1, §2, §3, §4, §5, §6

[8] = system: human bladder carcinoma cell line 253J; assay: Rare sugar uptake experiment, sugar content in disrupted cell suspension of 253J; conditions: 253J, 48 hours; for D-glucose content in cell: named sugar added to RPMI-1640 at 10 mM, HPLC after ABEE labeling
Method: as §1, §2, §3, §4, §5, §6

[9] = system: human bladder carcinoma cell line J82; assay: Rare sugar uptake experiment, sugar content in disrupted cell suspension of J82; conditions: J82, 48 hours; for D-glucose content in cell: named sugar added to RPMI-1640 at 10 mM, HPLC after ABEE labeling
Method: as §1, §2, §3, §4, §5, §6

[10] = sugar added to RPMI-1640 at 10 mM, ketoses: range from two peaks

| SMILES | D-glucose content in cell [1] | D-glucose content in cell [2] | D-glucose content in cell [3] | D-glucose content in cell [4] | D-glucose content in cell [5] | D-glucose content in cell [6] | D-glucose content in cell [7] | D-glucose content in cell [8] | D-glucose content in cell [9] | Content in cell of the added sugar [1, 10] | Content in cell of the added sugar [2, 10] | Content in cell of the added sugar [3, 10] | Content in cell of the added sugar [4, 10] | Content in cell of the added sugar [5, 10] | Content in cell of the added sugar [6, 10] | Content in cell of the added sugar [7, 10] | Content in cell of the added sugar [8, 10] | Content in cell of the added sugar [9, 10] |
| --- | --- | --- | --- | --- | --- | --- | --- | --- | --- | --- | --- | --- | --- | --- | --- | --- | --- | --- |
| OC[C@@H](O)[C@@H](O)[C@@H](O)[C@@H](O)CO [allitol] | 3.6 µg | 2.1 µg | 4.3 µg | 9.2 µg | 4.5 µg | 1.8 µg | 2.4 µg | 0.5 µg | 2.4 µg | – | – | – | – | – | – | – | – | – |
| O=C(CO)[C@@H](O)[C@H](O)[C@H](O)CO [D-fructose] | 4.4 µg | 2.7 µg | 3.6 µg | 4.1 µg | 4.2 µg | 2.1 µg | 2.5 µg | 3.3 µg | 2.7 µg | 12.7 to 15.7 µg | 16.5 to 20.1 µg | 20.4 to 21.3 µg | 0.0 µg | 12.9 to 17.0 µg | 16.8 to 19.0 µg | 16.7 to 20.7 µg | 0.0 µg | 11.1 to 15.0 µg |
| O=C(CO)[C@H](O)[C@H](O)[C@H](O)CO [D-allulose] | 3.4 µg | 1.6 µg | 3.1 µg | 7.5 µg | 3.9 µg | 1.9 µg | 2.3 µg | 0.6 µg | 2.1 µg | – | – | – | – | – | – | – | – | – |
| O=C[C@H](O)[C@@H](O)[C@H](O)[C@H](O)CO [D-glucose] | 16.7 µg | 6.7 µg | 8.4 µg | 6.5 µg | 4.4 µg | 5.6 µg | 4.4 µg | 4.0 µg | 7.2 µg | – | – | – | – | – | – | – | – | – |
| O=C(CO)[C@@H](O)[C@@H](O)[C@@H](O)CO [L-allulose] | 3.9 µg | 1.5 µg | 1.7 µg | 10.2 µg | 2.5 µg | 2.1 µg | 2.3 µg | 0.5 µg | 1.9 µg | – | – | – | – | – | – | – | – | – |
